Assay results taken from patent publication US7547691B2, “[4-(Benzo[B]thiophen-2-yl) Pyrimidin-2-yl]-amine derivatives as IKK-beta inhibitors for the treatment of cancer and inflammatory diseases” (Eli Lilly and Company, priority 2005, dated 2009).
Counter-ions that a name gives are not always drawn.

Columns and labels:
HCT116 cells = experiment: Cell Viability Test, HCT116; format: cell-based; details: HCT-116; HCT116 (human colon cancer cell line); 1 ng/mL TNFα, 0.5% DMSO, 48 hours; read-out: Cell Viability Inhibition IC50
Protocol: (§1) RPMI 8226 cells (ATCC #CCL-155; human multiple myeloma cell line) are grown in RPMI 1640 medium (Gibco #11875-093) supplemented with 10% FBS (fetal bovine serum, Gibco #10082-147), 10 mM HEPES (Gibco #15630-080), 1 mM sodium pyruvate (Gibco #11360-070), and 4.5 mg/mL glucose. HCT116 cells (ATCC #CCL-247; human colon cancer cell line) are grown in McCoy's 5A modified medium (Gibco #16600-082) supplemented with 10% FBS (Gibco #10082-147). H460 cells (ATCC #HTB-177; human non-small cell lung cancer line) are grown in RPMI 1640 (Gibco #11875-093) supplemented with 10% FBS (Gibco #10082-147). […]
(§2) For compound testing, various cancer cells are seeded at 5,000 cells/well in 100 μl corresponding media specified above for each cell line in 96-well plates one day prior to treatment. […] Cell death in each well is determined by the addition of 15 μL of the One Solution Reagent (The CellTiter 96® AQueous One Solution Reagent, Promega #G3580). After 1-2 hours of incubation at 37° C., optical densities at 490 nm are measured with a microplate reader (Molecular Devices SpectraMax). Inhibition of cell viability is determined by comparison to the control cells treated in the absence of a test compound.

H460 cells = experiment: Cell Viability Test, H460; format: cell-based; details: NCI-H460; H460 (human non-small cell lung cancer line); 1 ng/mL TNFα, 0.5% DMSO, 0.5 μg/mL cycloheximide, 48 hours; read-out: Cell Viability Inhibition IC50
Protocol: as §1, §2

RPMI 8226 cells = experiment: Cell Viability Test, RPMI-8226; format: cell-based; details: RPMI-8226 (human multiple myeloma cell line); 1 ng/mL TNFα, 0.5% DMSO, 48 hours; read-out: Cell Viability Inhibition IC50
Protocol: as §1, §2

U87MG cells = experiment: Cell Viability Test, U87MG; format: cell-based; details: U-87 MG; U87MG (human glioblastoma cell line); 1 ng/mL TNFα, 0.5% DMSO, 48 hours; read-out: Cell Viability Inhibition IC50
Protocol: as §1, §2

A2780 cells = experiment: Cell Viability Test, A2780; format: cell-based; details: A2780 (human ovarian carcinoma); 1 ng/mL TNFα, 0.5% DMSO, 48 hours; read-out: Cell Viability Inhibition IC50
Protocol: as §1, §2

IKKbeta = biological target: T1, IKKbeta (Homo sapiens, UniProt O14920); experiment: IKK-beta Kinase Assay; format: biochemical; details: purified IKKβ 4 nM, 20 μM IKB peptide, 10 μM ATP, 90 minutes; absolute IC50; read-out: Enzyme Inhibition IC50
T1 sequence (O14920 1-756): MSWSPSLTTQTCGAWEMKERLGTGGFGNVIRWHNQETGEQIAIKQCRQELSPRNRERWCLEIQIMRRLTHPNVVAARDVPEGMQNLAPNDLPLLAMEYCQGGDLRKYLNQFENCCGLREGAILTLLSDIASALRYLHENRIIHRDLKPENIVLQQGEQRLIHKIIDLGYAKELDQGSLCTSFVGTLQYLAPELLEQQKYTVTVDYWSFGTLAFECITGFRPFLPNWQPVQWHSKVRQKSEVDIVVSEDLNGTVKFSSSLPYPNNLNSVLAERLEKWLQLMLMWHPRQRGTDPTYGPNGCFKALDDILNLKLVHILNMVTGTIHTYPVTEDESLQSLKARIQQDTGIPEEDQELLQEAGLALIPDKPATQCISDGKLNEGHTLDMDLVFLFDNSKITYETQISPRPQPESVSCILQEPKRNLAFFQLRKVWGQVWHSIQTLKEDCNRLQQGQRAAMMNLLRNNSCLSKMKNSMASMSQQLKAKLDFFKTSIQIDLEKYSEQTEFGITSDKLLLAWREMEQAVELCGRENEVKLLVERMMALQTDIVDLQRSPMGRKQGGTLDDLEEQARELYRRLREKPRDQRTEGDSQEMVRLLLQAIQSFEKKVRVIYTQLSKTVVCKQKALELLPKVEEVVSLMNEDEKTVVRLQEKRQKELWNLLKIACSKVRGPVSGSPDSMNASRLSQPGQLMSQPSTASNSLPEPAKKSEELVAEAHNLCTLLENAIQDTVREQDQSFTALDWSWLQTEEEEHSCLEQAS
Protocol: The kinase activity of purified IKKβ is measured in vitro using a synthetic IKB peptide fragment (-[…]-) derived from IKB protein as a substrate. All reactions (30 μL) are started by the addition of the IKKb enzyme (final concentration: 4 nM) and then incubated at room temperature for 90 minutes in the reaction mix containing 20 μM IKB peptide, 10 μM ATP, 5 mM MgCl2, 50 mM Tris-HCl pH 7.5, 3 mM DTT, 4% DMSO, 1 mM Sodium Orthovandate, 0.5 mM β-glycerophosphate, 0.01% Triton X-100, 4 μCi γ-^33p-ATP/reaction. Reactions are terminated by addition of 30 μL 10% phosphoric acid, and the terminated reaction mix is filtered through a phosphocellulose membrane to remove unused γ-^33P-ATP. After four washes with 0.5% phosphoric acid, radio-labeled products bound to the filter are counted using a microbeta counter. All exemplified compounds are initially tested at 10 concentrations (20 μM down to 1 nM) using a 1:3 serial dilution scheme on the Beckman Tecan serial diluter. Calculation is done using a software package from IDBS (Activity Base) where an absolute IC50 value (non-linear regression) is calculated. Example 20 is specifically detailed below.

IC50 (HCT116 cells): 19.2 µM
IC50 (H460 cells): 9 µM
IC50 (RPMI 8226 cells): 2.2 µM
IC50 (U87MG cells): 22.3 µM
IC50 (A2780 cells): 11.7 µM
IC50 (IKKbeta): 0.046 µM
Compound: CN1CCN(CCCNc2ncc(Cl)c(-c3cc4c(C(=O)NC5CC5)cccc4s3)n2)CC1 [Example 20, 2-{5-Chloro-2-[3-(4-methylpiperazin-1-yl)-propylamino]-pyrimidin-4-yl}-benzo[b]thiophene-4-carboxylic acid cyclopropylamide tri-hydrochloride]
